The record followed here is US20110039763A1, “TARGETED ANTIMICROBIAL MOIETIES” (C3 JIAN, INC., priority 2009, published 2011).

Entries after “also recorded” stand apart in the source; their conditions may differ.

Experiment [1] relates to microorganisms. As to the kind of experiment: Morphology, biofilm and growth disrupting peptides (Table 5). Details: key: A: Peptide aggregates; B: Less hyphal formation; Clumps; Diffuse clumps and small polyps; F: Diffuse growth; H: Thin; I: Growth inhibition; Microcolony formation; Rippled; Small polyps; Thick; W: Halo formation on top, microlonies on bottom. In kind it is cell-based. From the text: In certain embodiments peptides that induce alterations in phenotype or other biological activities can also be used as antimicrobial effector moieties.

In experiment [2] the test system is microorganisms. As to the kind of experiment: Targeting peptide binding to target microorganisms (Tables 3, 10, 12). The note with it: microorganism(s) the targeting peptide binds; binding in aqueous buffers varied with peptide solubility, preferably 1x PBS.
The test system of experiment [3] is microorganisms. As to the kind of experiment: Peptide activities: targeting/binding, antimicrobial, growth or phenotype altering (Tables 7, 8). In kind it is cell-based. The note with it: peptides having multiple activities.

On to “PF-417: peptide having multiple activities (chain 1 DSYFRS; chain 2 DSYFRS; Peptide with targeting and/or antimicrobial activity)”, for which the “Organism, effect: MRSA” value in the experiment on microorganisms [1] (MRSA) is given as “MRSA (M)”. Besides, the “Organism, effect: S. epidermidis” value in the experiment with microorganisms [1] (S. epidermidis) is recorded as “S. epidermidis (M)”. The “Organism, effect: S. pneumoniae” value in the experiment with microorganisms [1] (S. pneumoniae) was “S. pneumoniae (M)”. Moreover, in the experiment with microorganisms [2], the “Target(s)” value is “S. epidermidis; also recorded: C. jeikeium; also recorded: C. jejuni”. Moreover, the Activities result in the experiment with microorganisms [3] is “G B”.

As for “PF-421: peptide having multiple activities (chain 1 KHCFEITDKTDVV; chain 2 KHCFEITDKTDVV; Peptide with targeting and/or antimicrobial activity)”, the “Organism, effect” value in the experiment with microorganisms [1] (S. pneumoniae) is recorded as “S. pneumoniae (H)”. Besides, in the experiment with microorganisms [2], the “Target(s)” value is recorded as “C. jeikeium”. In addition, the Activities result in the experiment with microorganisms [3] is recorded as “G B”.

For “PF-423: peptide having multiple activities (chain 1 AGKKERLLSFREQFLNKNKKK; chain 2 AGKKERLLSFREQFLNKNKKK; Peptide with targeting and/or antimicrobial activity)”, the “Organism, effect” value in the experiment on microorganisms [1] (S. pneumoniae) is recorded as “S. pneumoniae (H)”. In addition, the “Target(s)” value in the experiment on microorganisms [2] is recorded as “S. epidermidis; also recorded: M. luteus; also recorded: E. coli; also recorded: S. pneumoniae; also recorded: E. faecalis; also recorded: C. jeikeium”. Moreover, the Activities entry in the experiment with microorganisms [3] is recorded as “G B”.

In the case of “PF-424: peptide having multiple activities (chain 1 IAAFVTSRAFSDTVSPI; chain 2 IAAFVTSRAFSDTVSPI; Peptide with targeting and/or antimicrobial activity)”, in the experiment with microorganisms [1] (S. pneumoniae), the “Organism, effect” value is given as “S. pneumoniae (H)”. The “Target(s)” value in the experiment with microorganisms [2] was “S. epidermidis and C. albicans and MRSA”. Further, in the experiment on microorganisms [3], the Activities entry is “G B”.

As for “PF-425: peptide having multiple activities (chain 1 MMELVLKTIIGPIVVGVVLRIVDKWLNKDK; chain 2 MMELVLKTIIGPIVVGVVLRIVDKWLNKDK; Peptide with targeting and/or antimicrobial activity)”, the “Organism, effect” value is “C. albicans (A)” in the experiment with microorganisms [1] (C. albicans); “C. jejuni (D)” with microorganisms [1] (C. jejuni); “E. coli (C)” in the experiment with microorganisms [1] (E. coli); “E. faecalis (D)” in the experiment with microorganisms [1] (E. faecalis); “MRSA (D)” with microorganisms [1] (MRSA); “P. aeruginosa (A)” with microorganisms [1] (P. aeruginosa). Moreover, the “Organism, effect” value with microorganisms [1] (S. epidermidis) is “S. epidermidis (D)”; with microorganisms [1] (S. pneumoniae), “S. pneumoniae (D)”. The “Target(s)” value with microorganisms [2] is “S. epidermidis and M. luteus and E. coli and P. aeruginosa and C. albicans and MRSA and S. pneumoniae and C. jeikeium”. Moreover, in the experiment on microorganisms [3], the Activities result was “G B”.

Take “PF-426: peptide having multiple activities (chain 1 MLQKYTQMISVTKCIITKNKKTQENVDAYN; chain 2 MLQKYTQMISVTKCIITKNKKTQENVDAYN; Peptide with targeting and/or antimicrobial activity)”: the “Organism, effect” value in the experiment on microorganisms [1] (C. albicans) is listed as “C. albicans (A)”; with microorganisms [1] (C. jejuni), “C. jejuni (D)”; with microorganisms [1] (E. coli), “E. coli (C)”; with microorganisms [1] (E. faecalis) it was “E. faecalis (D)”; in the experiment on microorganisms [1] (MRSA), “MRSA (D)”; in the experiment with microorganisms [1] (S. epidermidis), “S. epidermidis (D)”. Moreover, the “Organism, effect” value in the experiment on microorganisms [1] (S. pneumoniae) is reported as “S. pneumoniae (D)”. The “Target(s)” value with microorganisms [2] is “S. epidermidis and E. coli and P. aeruginosa and C. albicans and MRSA and S. pneumoniae and E. faecalis and C. jeikeium”. The Activities entry in the experiment on microorganisms [3] is on record as “G B”.

Regarding “PF-427: peptide having multiple activities (chain 1 YVLEYHGLRATQDVDAFMAL; chain 2 YVLEYHGLRATQDVDAFMAL; Peptide with targeting and/or antimicrobial activity)”, the “Organism, effect” value with microorganisms [1] (E. coli) is on record as “E. coli (C)”; in the experiment on microorganisms [1] (E. faecalis), “E. faecalis (C)”; in the experiment on microorganisms [1] (MRSA) it was “MRSA (C)”; with microorganisms [1] (S. pneumoniae), “S. pneumoniae (R)”. In addition, in the experiment with microorganisms [2], the “Target(s)” value was “M. luteus; also recorded: P. aeruginosa; also recorded: C. albicans; also recorded: C. jejuni”. For the same substance, the Activities result with microorganisms [3] is given as “G B”.
